Test results reported in patent US4565811A, “Sodium salt of ursodeoxycholic sulphate” (Istituto Biologico Chemioterapico "ABC" S.p.A., priority 1983, dated 1986).
Counter-ions that a name gives are not always drawn.

Assays:
[1] = system: hyperdislipidemia caused by Triton WR-1339 in the rat; assay: Action on the hyperdislipidemia caused by Triton WR-1339 in the rat; format: in vivo, Albinus rats (Witar); details: for Alfa-Lipoproteins: Increase towards Group 2 / Beta-Lipoproteins: Inhibition towards Group 2 / Beta/alfa ratio: Inhibition towards Group 2 / Total cholesterol: Inhibition in comparison with Group 2 / Total lipids: Inhibition in comparison with Group 2 / Triglycerids: Inhibition in comparison with Group 2: vs Group 2 (Triton control); for Activity compared with UA: oral
Method: Action on the hyperdislipidemia caused by Triton WR-1339 in the rat
Albinus rats (Witar) of 300-320 g each, having been fed only with water "ad libitum" for 12 hours, were treated with US and UA, by oral route, 4 hours before and 15 hours after the administration intraperitenously of Triton WR-1339 at the dosage of 300 mg/kg in 10 ml/kg of physiologic solution at 0.9%.
US and UA dosages were 25, 50 and 100 mg/kg respectively and the rats were divided in the following groups of 10 animals each.
Group 1: Controls treated with 10 ml/kg of physiological solution at 0.9% orally.
Group 2: Controls treated with 300 mg/kg of Triton WR-1339 i.p. and 10 ml/kg of carboxy methyl cellulose (CMC) at 0.5%.
Group 3, 4 and 5: UA at 25, 50 and 100 mg/kg respectively suspended in 10 ml/kg of CMC at 0.5%.
Groups 6, 7 and 8: US at 25, 50 and 100 mg/kg respectively dissolved in 10 ml/kg of physiologic solution.
The following Tables 1 and 2 list the results of blood-tests from addominal aorta of rats sacrificed 5 hours after the last treatment: […]

[2] = Acute toxicity of US in the rat by oral administration; format: in vivo; design: key to Symptomatology: N: none; D: depression; details: rat, in vivo
Method: (§1) Acute toxicity of sodium ursosulphate was tested in rats by administering the different doses of the compound directly in a physiologic solution at 0.9% in a volume either of 10 ml/kg by oral route through a probe directly to the stomach or of 5 ml/kg intraperitoneously or intravenously.
(§2) The dosages administered to groups of 10 animals each are reported in the following Tables 3 to 5 together with the symptomatology observed for a period of 8 days.

rat [3] = assay: as above; format: in vivo; design: key to Symptomatology: N: none; D: depression; details: for Symptomatology: 8 days; for Died animals: groups of 10, 8 days
Method: as §1, §2

[4] = Acute toxicity of US in the rat by intraperitoneal administration; format: in vivo; design: key to Symptomatology: N: none; D: depression; details: rat, in vivo, ip
Method: as §1, §2

rat [5] = assay: as above; format: in vivo; design: key to Symptomatology: N: none; D: depression; details: for Symptomatology: 8 days; for Died animals: groups of 10, 8 days
Method: as §1, §2

[6] = Acute toxicity of US in the rat by intravenous route; format: in vivo; design: key to Symptomatology: N: none; D: depression; details: rat, in vivo
Method: as §1, §2

rat [7] = assay: as above; format: in vivo; design: key to Symptomatology: N: none; D: depression; details: for Symptomatology: 8 days; for Died animals: groups of 10, 8 days
Method: as §1, §2

[8] = Solubility in water / acidity; format: physicochemical; details: water
[9] = Toxicity of sodium ursosulphate compared with ursodeoxycholic acid; details: in vivo
[10] = 25 mg/kg os, Triton WR-1339 rat
[11] = 50 mg/kg os, Triton WR-1339 rat
[12] = 100 mg/kg os, Triton WR-1339 rat
[13] = rat, up to the administered doses

SMILES: CC(CCC(=O)O)C1CCC2C3C(OS(=O)(=O)O)CC4CC(OS(=O)(=O)O)CCC4(C)C3CCC12C (stereo not drawn) [US, sodium salt of ursodeoxycholic O-sulphate]
- Alfa-Lipoproteins Average ± SD [1, 10]: 29,2 ± 6,7 mg/100 ml serum
- Beta-Lipoproteins Average ± SD [1, 10]: 191,5 ± 42,1 mg/100 ml serum
- Beta/alfa ratio Average ± SD [1, 10]: 7,23 ± 3,6 mg/100 ml serum
- Total cholesterol Average ± SD [1, 10]: 220,8 ± 36,4 mg/100 ml serum
- Total lipids Average ± SD [1, 10]: 2697,1 ± 706,8 mg/100 ml serum
- Triglycerids Average ± SD [1, 10]: 1040,6 ± 91,08 mg/100 ml serum
- Alfa-Lipoproteins: Increase towards Group 2 ([1]; 25 mg/kg os): +30,4%
- Beta-Lipoproteins: Inhibition towards Group 2 ([1]; 25 mg/kg os): -29,9%
- Beta/alfa ratio: Inhibition towards Group 2 ([1]; 25 mg/kg os): -42,0%
- Total cholesterol: Inhibition in comparison with Group 2 ([1]; 25 mg/kg os): -25,4%
- Total lipids: Inhibition in comparison with Group 2 ([1]; 25 mg/kg os): -29,4%
- Triglycerids: Inhibition in comparison with Group 2 ([1]; 25 mg/kg os): -20,7%
- Alfa-Lipoproteins Average ± SD [1, 11]: 39,32 ± 5,5 mg/100 ml serum
- Beta-Lipoproteins Average ± SD [1, 11]: 123,8 ± 27,7 mg/100 ml serum
- Beta/alfa ratio Average ± SD [1, 11]: 3,15 ± 1,1 mg/100 ml serum
- Total cholesterol Average ± SD [1, 11]: 163,2 ± 25,7 mg/100 ml serum
- Total lipids Average ± SD [1, 11]: 1972,6 ± 550,0 mg/100 ml serum
- Triglycerids Average ± SD [1, 11]: 654,3 ± 206,5 mg/100 ml serum
- Alfa-Lipoproteins: Increase towards Group 2 ([1]; 50 mg/kg os): +75,4%
- Beta-Lipoproteins: Inhibition towards Group 2 ([1]; 50 mg/kg os): -54,7%
- Beta/alfa ratio: Inhibition towards Group 2 ([1]; 50 mg/kg os): -74,7%
- Total cholesterol: Inhibition in comparison with Group 2 ([1]; 50 mg/kg os): -44,3%
- Total lipids: Inhibition in comparison with Group 2 ([1]; 50 mg/kg os): -48,4%
- Triglycerids: Inhibition in comparison with Group 2 ([1]; 50 mg/kg os): -50,1%
- Alfa-Lipoproteins Average ± SD [1, 12]: 44,8 ± 8,5 mg/100 ml serum
- Beta-Lipoproteins Average ± SD [1, 12]: 102,3 ± 36,9 mg/100 ml serum
- Beta/alfa ratio Average ± SD [1, 12]: 2,46 ± 1,2 mg/100 ml serum
- Total cholesterol Average ± SD [1, 12]: 147,2 ± 31,3 mg/100 ml serum
- Total lipids Average ± SD [1, 12]: 1949,7 ± 273,9 mg/100 ml serum
- Triglycerids Average ± SD [1, 12]: 583,4 ± 121,1 mg/100 ml serum
- Alfa-Lipoproteins: Increase towards Group 2 ([1]; 100 mg/kg os): +100%
- Beta-Lipoproteins: Inhibition towards Group 2 ([1]; 100 mg/kg os): -72,6%
- Beta/alfa ratio: Inhibition towards Group 2 ([1]; 100 mg/kg os): -80,3%
- Total cholesterol: Inhibition in comparison with Group 2 ([1]; 100 mg/kg os): -50,3%
- Total lipids: Inhibition in comparison with Group 2 ([1]; 100 mg/kg os): -48,9%
- Triglycerids: Inhibition in comparison with Group 2 ([1]; 100 mg/kg os): -55,5%
- Dose dependence of activity inhibiting the hyperdislipidemia ([1]; 25, 50 and 100 mg/kg oral, Triton WR-1339 rat): depends on the dosage
- Activity compared with UA ([1]; Triton WR-1339 rat): more active than UA in all the considered tests
- Activity compared with UA ([1]; Triton WR-1339 rat, listed as sodium ursosulphate (US)): an activity in some cases higher than that of ursodeoxycholic acid
- mortality at 192 h ([2]; 1000 mg/kg): 0%
- mortality at 192 h ([2]; 2000 mg/kg): 0%
- mortality at 192 h ([2]; 3000 mg/kg): 0%
- mortality at 192 h ([2]; 4000 mg/kg): 0%
- mortality at 192 h ([2]; 5000 mg/kg): 20%
- mortality at 192 h ([2]; 6000 mg/kg): 40%
- Symptomatology (rat [3]; 1000 mg/kg): N
- Died animals (rat [3]; 1000 mg/kg): 0 animals
- Symptomatology (rat [3]; 2000 mg/kg): N
- Died animals (rat [3]; 2000 mg/kg): 0 animals
- Symptomatology (rat [3]; 3000 mg/kg): D
- Died animals (rat [3]; 3000 mg/kg): 0 animals
- Symptomatology (rat [3]; 4000 mg/kg): D
- Died animals (rat [3]; 4000 mg/kg): 0 animals
- Symptomatology (rat [3]; 5000 mg/kg): D
- Died animals (rat [3]; 5000 mg/kg): 2 animals
- Symptomatology (rat [3]; 6000 mg/kg): D
- Died animals (rat [3]; 6000 mg/kg): 4 animals
- LD50 (rat [3]; [13]): the LD50 was not reached up to the administered doses
- mortality at 192 h ([4]; 500 mg/kg): 0%
- mortality at 192 h ([4]; 600 mg/kg): 0%
- mortality at 192 h ([4]; 700 mg/kg): 0%
- mortality at 192 h ([4]; 800 mg/kg): 0%
- mortality at 192 h ([4]; 900 mg/kg): 10%
- Symptomatology (rat [5]; 500 mg/kg): N
- Died animals (rat [5]; 500 mg/kg): 0 animals
- Symptomatology (rat [5]; 600 mg/kg): N
- Died animals (rat [5]; 600 mg/kg): 0 animals
- Symptomatology (rat [5]; 700 mg/kg): D
- Died animals (rat [5]; 700 mg/kg): 0 animals
- Symptomatology (rat [5]; 800 mg/kg): D
- Died animals (rat [5]; 800 mg/kg): 0 animals
- Symptomatology (rat [5]; 900 mg/kg): D
- Died animals (rat [5]; 900 mg/kg): 2 animals
- LD50 (rat [5]; [13]): the LD50 was not reached up to the administered doses
- mortality at 192 h ([6]; 400 mg/kg): 0%
- mortality at 192 h ([6]; 500 mg/kg): 0%
- mortality at 192 h ([6]; 600 mg/kg): 0%
- mortality at 192 h ([6]; 650 mg/kg): 10%
- mortality at 192 h ([6]; 700 mg/kg): 10%
- mortality at 192 h ([6]; 750 mg/kg): 20%
- Symptomatology (rat [7]; 400 mg/kg): N
- Died animals (rat [7]; 400 mg/kg): 0 animals
- Symptomatology (rat [7]; 500 mg/kg): N
- Died animals (rat [7]; 500 mg/kg): 0 animals
- Symptomatology (rat [7]; 600 mg/kg): D
- Died animals (rat [7]; 600 mg/kg): 0 animals
- Symptomatology (rat [7]; 650 mg/kg): D + C
- Died animals (rat [7]; 650 mg/kg): 1 animals
- Symptomatology (rat [7]; 700 mg/kg): D + C
- Died animals (rat [7]; 700 mg/kg): 1 animals
- Symptomatology (rat [7]; 750 mg/kg): D + C
- Died animals (rat [7]; 750 mg/kg): 2 animals
- LD50 (rat [7]; [13]): the LD50 was not reached up to the administered doses
- Solubility in water ([8]; listed as Sodium ursosulphate): very soluble in water
- Solubility in water ([8]; listed as sodium ursosulphate): very soluble in water
- Toxicity compared with ursodeoxycholic acid [9]: does not show any significative differences and maintains the values already known for ursodeoxycholic acid
